According to ChEMBL document CHEMBL1121723 (J Med Chem, 1981):

tested on: Thromboxane-A synthase (Oryctolagus cuniculus); test: Compound was tested for its inhibitory activity against Thromboxane synthetase; settings: concentration not given here

inhibition [%] | SMILES
17.5 | SCCCCCCCCn1ccnc1
0 | N#CCCCCCCCn1ccnc1
8.8 | O=S(=O)(O)CCCCCCn1ccnc1
11.4 | CSCCCCCCCCn1ccnc1

target: Thromboxane-A synthase (Oryctolagus cuniculus); test: Inhibitory activity against rabbit thromboxane synthetase; settings: not given

SMILES | IC50 [nM]
O=C(O)C(CCCCCCn1ccnc1)C(=O)O | 550
O=C(O)CCCCCCc1c[nH]cn1 | 20000
O=C(O)Cc1ccc(CCn2ccnc2)cc1 | 1500
c1cn(CCCCCCCn2ccnc2)cn1 | 2000
CC(C)(CC/C=C/C=C/C(=O)O)n1ccnc1 | 450
NC(CCCCCCn1ccnc1)C(=O)O (stereo not given) | > 1000
CC(=O)CCCCCCCn1ccnc1 | > 1000
C[S+]([O-])CCCCCCCCn1ccnc1 (stereo not given) | 3300
O=C(O)CCCc1ccc(Cn2ccnc2)cc1 | 1200
O=C(O)CCCCCCc1ncc[nH]1 | 20000
Cc1nccn1CCCCCCC(=O)O | > 1000

More lines, now with the values ahead:

IC50 [nM] | SMILES
40 | O=C(O)COc1ccc(Cn2ccnc2)cc1
38 | CC(Oc1ccc(Cn2ccnc2)cc1)C(=O)O (stereo not given)
44 | O=C(O)c1ccc(/C=C/Cn2ccnc2)cc1
250 | O=C(O)C(CO)CCCCCCn1ccnc1 (stereo not given)
250 | O=C(O)/C=C/c1ccc(OCCn2ccnc2)cc1
210 | O=C(O)COc1ccccc1Cn1ccnc1
9 | CC(C)(CCCC#CCn1ccnc1)C(=O)O
140 | O=C(O)C(O)CCCCCCn1ccnc1 (stereo not given)
32 | O=C(O)/C=C/c1cccc(Cn2ccnc2)c1
25 | CC(C)(Oc1ccc(Cn2ccnc2)cc1)C(=O)O
134 | O=C(CCCCCCCn1ccnc1)c1ccccc1
120 | O=C(O)CCCc1ccc(-n2ccnc2)cc1
5 | O=C(O)c1ccc(CCCn2ccnc2)cc1

tested on: Thromboxane-A synthase (Oryctolagus cuniculus); test: Compound was tested for its inhibitory activity against Thromboxane synthetase at 25 nM; settings: not given

inhibition [%] | SMILES
13.4 | c1cn(CCCCCCCn2ccnc2)cn1
9 | C[S+]([O-])CCCCCCCCn1ccnc1 (stereo not given)
